The supplement of paper PMC13380429
Counter-ions that a name gives are not always drawn. ± gives the standard deviation of the averaged measurements.

What was measured:
Settings in all cases: 72 h
Caco-2 [1] = test: cell viability relative to DMSO; higher = less toxic
Calu-3 [2] = test: as above
HepG2 [3] = test: as above
Vero E6 [4] = test: as above
U2OS [5] = test: as above
Caco-2 [6] = test: relative viability EC50 (midpoint between 100% and the lowest measured viability); higher = less toxic
Calu-3 [7] = test: as above
U2OS [8] = test: as above
Caco-2 [9] = test: drug sensitivity score (DSS) for viability; higher = more toxic; extreme values may be limits of the assay
Calu-3 [10] = test: as above
HepG2 [11] = test: as above
Vero E6 [12] = test: as above
U2OS [13] = test: as above
Vero E6 [14] = test: relative viability EC50 (midpoint between 100% and the lowest measured viability); higher = less toxic

SMILES	cell viability (Caco-2 [1]; 1 nM)	cell viability (Caco-2 [1]; 10 nM)	cell viability (Caco-2 [1]; 100 nM)	cell viability (Caco-2 [1]; 1000 nM)	cell viability (Caco-2 [1]; 10000 nM)	cell viability (Calu-3 [2]; 1 nM)	cell viability (Calu-3 [2]; 10 nM)	cell viability (Calu-3 [2]; 100 nM)	cell viability (Calu-3 [2]; 1000 nM)	cell viability (Calu-3 [2]; 10000 nM)	cell viability (HepG2 [3]; 1 nM)	cell viability (HepG2 [3]; 10 nM)	cell viability (HepG2 [3]; 100 nM)	cell viability (HepG2 [3]; 1000 nM)	cell viability (HepG2 [3]; 10000 nM)	cell viability (Vero E6 [4]; 1 nM)	cell viability (Vero E6 [4]; 10 nM)	cell viability (Vero E6 [4]; 100 nM)	cell viability (Vero E6 [4]; 1000 nM)	cell viability (Vero E6 [4]; 10000 nM)	cell viability (U2OS [5]; 1 nM)	cell viability (U2OS [5]; 10 nM)	cell viability (U2OS [5]; 100 nM)	cell viability (U2OS [5]; 1000 nM)	cell viability (U2OS [5]; 10000 nM)	relative viability EC50 (Caco-2 [6])	relative viability EC50 (Calu-3 [7])	relative viability EC50 (U2OS [8])	drug sensitivity score (Caco-2 [9])	drug sensitivity score (Calu-3 [10])	drug sensitivity score (HepG2 [11])	drug sensitivity score (Vero E6 [12])	drug sensitivity score (U2OS [13])	relative viability EC50 (Vero E6 [14])
O=C1NC(=O)c2c1c1c3ccccc3n3c1c1c2c2ccccc2n1C1CCC3O1	101%	96.2%	92.9%	76.9%	80.7%	104%	92.6%	96.4%	92%	95.9%	100%	99.9%	98.8%	57.8%	56.5%	98.5%	94.7%	95%	71.7%	75%	99.8%	99.3%	91.1%	86.8%	80%	> 10 µM	> 10 µM	> 10 µM	4	0	7.8	5.5	1.9	
CC(C)NC[C@@H](C(=O)N1CCN(c2ncnc3c2[C@H](C)C[C@H]3O)CC1)c1ccc(Cl)cc1 [GDC-0068]	107%	107%	96%	83.2%	69.1%	101%	108%	89.9%	80.8%	56.7%	109%	115%	108%	98.9%	71.4%	105%	102%	100%	101%	93.2%	105%	100%	101%	96.8%	87.2%			> 10 µM	3	4.3	1.3	0	0.3	> 10 µM
CN1c2cc3c(cc2N=C(c2ccc(C(=O)O)cc2)c2ccccc21)C(C)(C)CCC3(C)C [LE-135]	88.8%	100%	101%	89.7%	60.1%	108%	108%	91.2%	102%	98.5%	85.1%	104%	86.8%	87.6%	74%	99%	102%	98.2%	87.3%	78.7%	101%	106%	100%	97.8%	57.2%		> 10 µM		3.6	0	2.4	1.7	2.5	> 10 µM
CCCCCCOc1cc2c(cc1N(C)c1ncc(C(=O)O)cn1)C(C)(C)CCC2(C)C [PA-452]																					97.7%	92.8%	97%	101%	103%			> 10 µM					0	
CN1[C@@H]2C[C@@H](OC(=O)[C@H](CO)c3ccccc3)C[C@H]1[C@@H]1O[C@@H]12 [SCOPOLAMINE HYDROBROMIDE]						96.6%	99.1%	91.6%	101%	105%						94.2%	99%	94.4%	97.2%	115%	98%	98.7%	99.3%	95.9%	96.4%		> 10 µM	> 10 µM		0		0	0	> 10 µM
CCC(C)(C)c1ccc(CC(C)CN2C[C@@H](C)O[C@@H](C)C2)cc1 (stereo partly drawn) [amorolfine]	86%	114%	91.8%	84.8%	76%	93.8%	109%	92.9%	100%	94.7%																> 10 µM	> 10 µM		2.5	0				
COC(=O)C1=CCCN(C)C1 [arecoline]																														0.6	0		0	
O=C(/C=C/c1ccc(O)c(O)c1)O[C@@H]1C[C@](O)(C(=O)O)C[C@@H](O)[C@H]1O [chlorogenic-acid]																														0	0	0	0	
Oc1ccc(OC2CCCCO2)cc1 (stereo not drawn) [deoxyarbutin]	89.2%	99.1%	99.1%	97.3%	104%	98.1%	98.2%	97.4%	110%	92.9%																> 10 µM	> 10 µM		0	0				
CCOc1ccc(Cc2nccc3cc(OCC)c(OCC)cc23)cc1OCC [ethaverine]	89.5%	87.4%	90.3%	82.9%	77.3%	98.8%	100%	101%	105%	69.3%	86.2%	91.2%	105%	76.5%	57.3%	116%	90.6%	103%	95.2%	90.9%	93.3%	106%	95.4%	96.6%	86.1%	> 10 µM		> 10 µM	3.6	1.1	5.1	0	0.3	> 10 µM
C/C=C(/C)C(=O)O[C@H]1C(C)=C[C@]23C(=O)[C@@H](C=C(CO)[C@@H](O)[C@]12O)[C@H]1[C@@H](C[C@H]3C)C1(C)C [ingenol-mebutate]	109%	110%	89.8%	81.8%	84.6%	117%	110%	96.6%	102%	105%	102%	86.4%	66.4%	70.7%	77.7%	99.2%	83.9%	54.7%	53%	51.7%	101%	88.5%	75.2%	89.1%	93.4%	> 10 µM	> 10 µM	> 10 µM	3.2	0	12	16.5	0.8	
CC1COc2c(N3CCN(C)CC3)c(F)cc3c(=O)c(C(=O)O)cn1c23 (stereo not drawn) [ofloxacin]																														0	0.85 ± 1.2	0	0	
CC(=O)O[C@H]1CC[C@@]2(C)C(=CC[C@@H]3[C@@H]2CC[C@]2(C)C(=O)CC[C@@H]32)C1 [prasterone-acetate]																														0	0	0	0	
CN1CCN(CCOc2cc(OC3CCOCC3)c3c(Nc4c(Cl)ccc5c4OCO5)ncnc3c2)CC1 [saracatinib]	107%	102%	102%	84.4%	63.8%	87.7%	116%	95%	42.3%	9.6%	100%	101%	107%	80.2%	72.1%	97.5%	97.1%	102%	75.2%	21%	98.6%	102%	88.8%	78.9%	47.5%		0.7 µM	1.09 µM	3.8	12	3.3	8	5.2	1.37 µM
Cc1cc(NS(=O)(=O)c2ccc(N)cc2)no1 [sulfamethoxazole]																														0	0		0	
Cn1ncnc1[C@H]1c2n[nH]c(=O)c3cc(F)cc(c23)N[C@@H]1c1ccc(F)cc1 [talazoparib]	105%	96.3%	93.7%	82.7%	85.9%	105%	84.3%	93.3%	68.9%	58.2%	98.8%	89.3%	77.3%	71.4%	50.1%	95.1%	97.6%	77.6%	66.3%	54.5%						> 10 µM			2.1	6.3	8.5	8.7		
CN1CCN(CCCN2c3ccccc3Sc3ccc(C(F)(F)F)cc32)CC1 [trifluoperazine]	92%	86.1%	84.3%	82.6%	83%	103%	99.3%	102%	101%	72.2%	106%	89.7%	98%	92%	56.6%	95.5%	103%	105%	88.7%	76.2%	97.4%	100%	101%	98%	85.5%	> 10 µM		> 10 µM	4.6	1	3.5	2.2	0.4	> 10 µM
